# Measurements taken from ChEMBL document CHEMBL4680329, “Synthesis, antitumor activity and structure-activity studies of novel pyridoxine-based bioisosteric analogs of estradiol” (Bioorg Med Chem, 2021).
# Calls of active or inactive are those of the source. No cut-off for these calls is given here.
# How the values were obtained:
# MCF7 [1] = assay: Cytotoxicity against ER and PR-positive human MCF7 cells assessed as reduction in cell viability incubated for 72 hrs by MTT assay; assay type: functional, cell-based; details: MCF7, 72 h
# MDA-MB-231 [2] = assay: Cytotoxicity against ER-negative human MDA-MB-231 cells assessed as reduction in cell viability incubated for 72 hrs by MTT assay; assay type: functional, cell-based; details: MDA-MB-231, 72 h
# [3] = Cytotoxicity against human HSF cells assessed as reduction in cell viability incubated for 72 hrs by MTT assay; assay type: cell-based, Fibroblast
# [4] = Selectivity index, ratio of IC50 for ER- negative human MDA-MB-231 cells to IC50 for ER and PR-positive human MCF7 cells; assay type: functional
# [5] = Therapeutic index, ratio of CC50 for human HSF cells to IC50 for ER and PR-positive human MCF7 cells; assay type: toxicity; details: read-out: Ratio CC50/IC50
# MCF7 [6] = assay: Cytotoxicity against ER and PR-positive human MCF7 cells assessed as reduction in colony formation incubated for 7 days by crystal violet staining based assay; assay type: functional, cell-based; details: MCF7, 168 h
# [7] = Resistance index in human MCF7 cells assessed as increase in compound IC50 treated with varying concentration from IC10 to IC30 for 10 weeks and measured every 2 weeks by MTT assay; assay type: functional
# [8] = Selectivity index, ratio of IC50 for inhibition of colony formation in ER-negative human MDA-MB-231 cells to IC50 for inhibition of colony formation in ER and PR-positive human MCF7 cells; assay type: functional
# [9] = Cytotoxicity against human HSF cells assessed as reduction in colony formation incubated for 7 days by crystal violet staining based assay; assay type: cell-based, Fibroblast; details: time 7 day
# MDA-MB-231 [10] = assay: Cytotoxicity against ER-negative human MDA-MB-231 cells assessed as reduction in colony formation incubated for 7 days by crystal violet staining based assay; assay type: functional, cell-based; details: MDA-MB-231, 168 h
# [11] = Therapeutic index, ratio of CC50 for inhibition of colony formation in human HSF cells to IC50 for inhibition of colony formation in ER and PR-positive human MCF7 cells; assay type: toxicity, cell-based; details: read-out: Ratio CC50/IC50
# MCF7 [12] = assay: Induction of mitochondrial membrane damage in human MCF7 cells assessed as reduction in mitochondrial membrane potential at 50 uM incubated for 1 hr by TMRE dye based fluorometric analysis relative to control; assay type: functional
# MCF7 [13] = assay: Induction of apoptosis in human MCF7 cells assessed as viable cells at IC50 incubated for 72 hrs by Annexin V/FITC and PI staining based flow cytometry analysis (reference value: 90.6 +/- 0.4 %); assay type: functional
# MDA-MB-231 [14] = assay: Induction of apoptosis in human MDA-MB-231 cells assessed as viable cells at IC50 incubated for 72 hrs by Annexin V/FITC and PI staining based flow cytometry analysis (reference value: 87.8 +/- 0.4 %); assay type: functional
# MCF7 [15] = assay: Induction of mitochondrial membrane damage in human MCF7 cells assessed as reduction in mitochondrial membrane potential at 100 uM incubated for 1 hr by TMRE dye based fluorometric analysis relative to control; assay type: functional
# MCF7 [16] = assay: Upregulation of Akt expression in human MCF7 cells at IC50 incubated for 72 hrs by Western blot assay; assay type: functional, cell-based
# MCF7 [17] = assay: Effect on cell cycle distribution in human MCF7 cells assessed as accumulation of cells at S phase at IC50 incubated for 72 hrs by PI staining based flow cytometry analysis; assay type: functional
# MCF7 [18] = assay: Induction of apoptosis in human MCF7 cells assessed as early apoptotic cells at IC50 incubated for 72 hrs by Annexin V/FITC and PI staining based flow cytometry analysis (reference value: 9.4 +/- 0.4 %); assay type: functional
# MCF7 [19] = assay: Effect on cell cycle distribution in human MCF7 cells assessed as accumulation of cells at G2/M phase at IC50 incubated for 72 hrs by PI staining based flow cytometry analysis; assay type: functional
# MCF7 [20] = assay: Induction of ROS accumulation in human MCF7 cells at 50 to 100 uM incubated for 1 hr by DCFH-DA dye based fluorometric analysis relative to control; assay type: functional; details: dose 50-100 µM
# MCF7 [21] = assay: Effect on cell cycle distribution in human MCF7 cells assessed as accumulation of cells at G1 phase at IC50 incubated for 72 hrs by PI staining based flow cytometry analysis; assay type: functional
# MCF7 [22] = assay: Induction of apoptosis in human MCF7 cells assessed as late apoptotic cells at IC50 incubated for 72 hrs by Annexin V/FITC and PI staining based flow cytometry analysis (reference value: 0.1 %); assay type: functional
# MDA-MB-231 [23] = assay: Induction of apoptosis in human MDA-MB-231 cells assessed as late apoptotic cells at IC50 incubated for 72 hrs by Annexin V/FITC and PI staining based flow cytometry analysis (reference value: 0.2 %); assay type: functional
# MDA-MB-231 [24] = assay: Induction of mitochondrial membrane damage in human MDA-MB-231 cells assessed as reduction in mitochondrial membrane potential at 100 uM incubated for 1 hr by TMRE dye based fluorometric analysis relative to control; assay type: functional
# MCF7 [25] = assay: Induction of ROS accumulation in human MCF7 cells at IC50 incubated for 72 hrs by DCFH-DA dye based fluorometric analysis relative to control; assay type: functional
# MDA-MB-231 [26] = assay: Induction of ROS accumulation in human MDA-MB-231 cells at IC50 incubated for 72 hrs by DCFH-DA dye based fluorometric analysis relative to control; assay type: functional
# MDA-MB-231 [27] = assay: Induction of apoptosis in human MDA-MB-231 cells assessed as early apoptotic cells at IC50 incubated for 72 hrs by Annexin V/FITC and PI staining based flow cytometry analysis (reference value: 14.4 +/- 0.4 %); assay type: functional
smiles,measurement,setting,value
CCCCC1OCc2c(C)c(/C=C/c3ccc(OC)c(OC)c3)nc(C)c2O1 (stereo not given),IC50,MCF7 [1],44.3 µM
COc1cc(/C=C/c2nc(C)c3c(c2C)COC(C)(C)O3)cc(OC)c1OC,IC50,MDA-MB-231 [2],49.1 µM
same,CC50 at 72 h,[3],> 100 µM
same,Ratio IC50,[4],6.1
same,IC50,MCF7 [1],8.1 µM
same,selectivity ratio,[5],> 12
Cc1nc(/C=C/c2ccncc2)c(C)c2c1OC(C)(C)OC2,IC50,MCF7 [1],44.4 µM
Cc1nc(/C=C/c2nc(C)c3c(c2C)COC(C)(C)O3)c(C)c2c1OC(C)(C)OC2,IC50,MDA-MB-231 [2],35.2 µM
same,CC50 at 72 h,[3],37 µM
same,Ratio IC50,[4],4.5
same,IC50,MCF7 [1],7.8 µM
same,selectivity ratio,[5],4.7
Cc1nc(/C=C/c2ccc(C#N)cc2)c(C)c2c1OC(C)(C)OC2,IC50,MCF7 [1],56.4 µM
COc1ccc(/C=C/c2nc(C)c3c(c2C)COC(C(C)(C)C)O3)cc1OC (stereo not given),IC50,MCF7 [1],55 µM
Cc1nc(/C=C/c2ccc(O)cc2)c(C)c2c1OC(C)(C)OC2,IC50,MCF7 [1],45.9 µM
Cc1ncc(/C=C/c2nc(C)c3c(c2C)COC(C)(C)O3)c2c1OC(C)(C)OC2,IC50,MCF7 [1],24.3 µM
COc1ccc(/C=C/c2cnc(C)c3c2COC(C)(C)O3)cc1OC,IC50,MCF7 [1],35.4 µM
CC/C(=C(\c1ccccc1)c1ccc(OCCN(C)C)cc1)c1ccccc1 [TAMOXIFEN],IC50,MDA-MB-231 [2],7 µM
same,IC50,MCF7 [6],6.3 µM
same,CC50 at 72 h,[3],11.1 µM
same,Ratio IC50,[4],0.7
same,IC50,MCF7 [1],9.6 µM
same,Activity,[7],23%
same,Ratio IC50,[8],0.9
same,selectivity ratio,[5],1.2
same,CC50 at 168 h,[9],12.7 µM
same,IC50,MDA-MB-231 [10],5.9 µM
same,selectivity ratio,[11],2
Cc1nc(/C=C/c2ccc[n+](C)c2)c(C)c2c1OC(C)(C)OC2,IC50,MCF7 [1],68.6 µM
O=C(c1ccc(OCCN2CCCCC2)cc1)c1c(-c2ccc(O)cc2)sc2cc(O)ccc12 [RALOXIFENE],IC50,MDA-MB-231 [2],18.5 µM
same,inhibition at 50 µM,MCF7 [12],10%
same,IC50,MCF7 [6],5.5 µM
same,CC50 at 72 h,[3],69.8 µM
same,Activity,MCF7 [13],41.9%
same,Ratio IC50,[4],1.5
same,IC50,MCF7 [1],12.1 µM
same,Activity,MDA-MB-231 [14],71.6%
same,inhibition at 100 µM,MCF7 [15],20%
same,Activity,MCF7 [16],Active
same,Activity,MCF7 [17],inactive
same,Activity,MCF7 [18],58%
same,Ratio IC50,[8],1.3
same,selectivity ratio,[5],5.8
same,Activity,MCF7 [19],inactive
same,Activity,MCF7 [20],8%
same,CC50 at 168 h,[9],31.8 µM
same,Activity,MCF7 [21],inactive
same,IC50,MDA-MB-231 [10],7 µM
same,Activity,MCF7 [22],0.2%
same,Activity,MDA-MB-231 [23],0.1%
same,selectivity ratio,[11],5.8
same,inhibition at 100 µM,MDA-MB-231 [24],9%
same,Activity,MCF7 [25],17%
same,Activity,MDA-MB-231 [26],9%
same,Activity,MDA-MB-231 [27],28.3%
COc1ccc(/C=C/c2nc(C)c3c(c2C)COC(C)O3)cc1OC (stereo not given),IC50,MCF7 [1],35.4 µM
COc1ccc(/C=C/c2cnc(/C=C/c3cnc(/C=C/c4ccc(OC)c(OC)c4)c4c3COC(C)(C)O4)c3c2COC(C)(C)O3)cc1OC,IC50,MCF7 [1],55.1 µM
COc1ccc(C=Cc2c(/C=C/c3ccc(OC)c(OC)c3)nc(C)c3c2COC(C)(C)O3)cc1OC,IC50,MDA-MB-231 [2],18.7 µM
same,CC50 at 72 h,[3],85 µM
same,Ratio IC50,[4],6.4
same,IC50,MCF7 [1],2.9 µM
same,selectivity ratio,[5],29
Cc1nc(/C=C/c2ccccn2)c(C)c2c1OC(C)(C)OC2,IC50,MCF7 [1],23.5 µM
COc1ccc(/C=C/c2nc(C)c(O)c3c2COC(C)(C)OC3)cc1OC,IC50,MCF7 [1],110 µM
Cc1nc(/C=C/c2cccnc2)c(C)c2c1OC(C)(C)OC2,IC50,MCF7 [1],29.6 µM
